Values of other authors, collected in patent publication US11801275B2, “Compositions and methods for common colds” (M. ALPHABET 3, LLC, priority 2017, dated 2023).
Where two headings read alike, the source gives them in different places.

Legend:
[1] = tested on: upper respiratory tract infections

Row | SMILES | pooled risk ratio (RR) of developing a cold whilst taking vitamin C regularly (common cold; five trials, 598 marathon runners, skiers and soldiers on subarctic exercises, 95% CI 0.35 to 0.64) | pooled risk ratio (RR) of developing a cold whilst taking vitamin C regularly (common cold; general community trials, 10,708 participants, 95% CI 0.94 to 1.00) | effect on the duration or severity of colds (common cold; therapeutic trials) | mean level of 25-hydroxy vitamin D ([1]; after oral vitamin D3 200,000 IU then 100,000 IU, increased from 29 (SD, 9) ng/mL, maintained throughout the study) | difference versus placebo in upper respiratory tract infections, days of missed work, duration and severity of symptoms ([1]; irrespective of season)
1 | O=C1O[C@H]([C@@H](O)CO)C(O)=C1O [vitamin C, ascorbic acid] | 0.48 | 0.97 | no consistent effect |  | 
2 | C=C1CC[C@H](O)C/C1=C/C=C1\CCC[C@]2(C)[C@@H]([C@H](C)CCCC(C)C)CC[C@@H]12 [vitamin D3] |  |  |  | greater than 48 ng/mL | no statistically significant difference
